From patent US20240335445A1, “Compounds and Compositions for Treating Fibrosis” (YALE UNIVERSITY, priority 2017, published 2024) come the findings set out here.

Molecules are shown by their SMILES.

Holding throughout (type): biochemical
Assay [1] deals with T1, MKP5 (Homo sapiens, UniProt Q9Y6W6).
T1 sequence (Q9Y6W6 1-482): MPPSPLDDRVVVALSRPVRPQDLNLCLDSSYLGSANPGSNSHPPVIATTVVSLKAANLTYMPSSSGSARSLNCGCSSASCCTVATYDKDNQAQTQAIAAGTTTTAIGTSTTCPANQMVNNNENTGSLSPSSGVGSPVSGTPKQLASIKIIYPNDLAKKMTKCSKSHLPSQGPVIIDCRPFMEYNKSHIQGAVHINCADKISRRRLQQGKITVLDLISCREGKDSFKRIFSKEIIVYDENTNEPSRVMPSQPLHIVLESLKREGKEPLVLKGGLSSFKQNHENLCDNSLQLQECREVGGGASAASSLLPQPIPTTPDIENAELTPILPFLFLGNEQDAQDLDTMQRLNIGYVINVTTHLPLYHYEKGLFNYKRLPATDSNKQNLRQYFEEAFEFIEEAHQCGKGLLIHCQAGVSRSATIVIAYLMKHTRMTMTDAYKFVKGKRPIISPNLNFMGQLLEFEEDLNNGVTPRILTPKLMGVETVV
The assay is described as follows: MKP5 EZReader assay with fluorescent mono-phosphorylated peptides.

In assay [2] the target is T1, MKP5. The assay is described as follows: MKP-5 Malachite Green phosphate assay with dual phosphorylated peptide pTpY. The settings on record: for inhibition at 12.5 µM: read-out: % inhibition of MKP-5. The text has this:
In a non-limiting example, the assay comprises contacting a peptide comprising the sequence pThr-Gly-pTyr, the polypeptide comprising and/or consisting of the catalytic domain of MKP-5 (such as but not limited to residues 305-482 of SEQ ID NO:4), or an active fragment thereof, and the test compound. If the test compound is a MKP-5 inhibitor, it will inhibit the dephosphorylation of the peptide comprising the sequence pThr-Gly-pTyr. If the test compound is not a MKP-5 inhibitor, it will not inhibit the dephosphorylation of the peptide comprising the sequence pThr-Gly-pTyr. Dephosphorylation of that peptide can be evaluated qualitatively and/or quantitatively using any methods known in the art, such as but not limited to a Malachite Green Phosphate Assay. This assay provides a fast, reproducible, colorimetric method for measuring inorganic free phosphate in aqueous solutions. The assay method is based on the formation of a complex between malachite green molybdate and free orthophosphate that absorbs at 620-640 nm. This assay is a reliable and suitable means of detecting and quantifying minimal amounts of inorganic free phosphate and is amenable to high-throughput screening applications.
Compounds from the pilot collection consisting of Microsource GenPlus, Microsource Natural Product, NIH Clinical collections, ChemBridge DIVERSet, ChemBridge MicroFormats, Maybridge Diversity, and ChemBridge Amines and Alcohols were screened. Assay conditions were 1.5 μM MKP-5 and 25 μM dual phosphorylated peptide DDE (Nle) (pT) G (pY) VATR (10 μL total volume), incubated for 30 minutes at 37° C. followed by addition of 40 μL Malachite Green reagent. Z′ values are ˜0.7-0.8. Malachite green reagent was made by combining 30 mL 0.045% Malachite Green (Sigma #M-9636) with 20 mL 4.2% ammonium molybdate in 4 M HCl, shaking for at least 30 mins and adding 0.01% Tween 20.

Assay [3] concerns the target T1, MKP5. The assay is described as follows: MKP5 pNPP assay.
Assay [4] has as its target T1, MKP5. Nature of the assay: MKP-5 inhibition, assay not specified. The settings on record: read-out: IC50 against MKP-5.
The mark [5] stands for this setting: Kd (M) MKP5 EZREader fluor pT_Y, substrate fluor pT_Y (SEQ ID NO: 2).
Where [6] appears, read: Kd (M) MKP5 EZReader fluor_TpY, substrate fluor_TpY (SEQ ID NO: 1).

For `CSc1scc2c1-c1nc(SCC(=O)C(C)(C)C)ncc1CC2` [YU032149, 3,3-dimethyl-1-((9-(methylthio)-5,6-dihydrothieno[3,4-h]quinazolin-2-yl)thio)butan-2-one], the Kd is 1.13e-05 M on MKP5 [1] (setting [5]), 1.75e-05 M at MKP5 [1] (setting [6]), 6.25 µM on MKP5 [2] and 4.23 µM at MKP5 [3]. Also, on MKP5 [4], the IC50 was ~12 µM.

In the case of `O=c1cc2oc3cc(O)c(O)cc3c(-c3ccc([N+](=O)[O-])o3)c-2cc1O` [YU109017], the Kd is 1.56e-05 M at MKP5 [1] (setting [5]), 1.03e-05 M at MKP5 [1] (setting [6]), > 100 µM at MKP5 [2] and > 100 µM on MKP5 [3].

`O=C(O)c1ccc(C2Nc3c(-c4ccccc4)cccc3C3C=CCC32)cc1` (centres unmarked) [YU119284]: the Kd was > 0.0002 M at MKP5 [1] (setting [5]), > 0.0002 M on MKP5 [1] (setting [6]), > 100 µM at MKP5 [2] and > 200 µM at MKP5 [3].

Regarding `Cc1ccc(C)n1-c1ccc(C(=O)O)c(O)c1` [YU129641], the Kd on MKP5 [1] (setting [5]) is 1.41e-05 M; on MKP5 [1] (setting [6]), 1.04e-05 M; at MKP5 [2], > 100 µM; at MKP5 [3], > 200 µM.

As to `CC(C)(C)C(=O)CSc1ncc2cnc3ccccc3c2n1` [YU241658], the inhibition at 12.5 µM at MKP5 [2] stood at 15%.

For the molecule `CC(=O)N1Cc2cnc(SCC(=O)C(C)(C)C)nc2-c2ccccc21` [YU241659], on MKP5 [2], the inhibition at 12.5 µM is 12%.

Take `CC(C)(C)C(=O)CSc1ncc2c(n1)-c1ccsc1CC2` [YU252252]: at MKP5 [2], the inhibition at 12.5 µM was found to be 37%.
